“Also recorded” adds a separate entry of the source.
Tests used:
[1] = system: Myc-SmoC320A-induced Hh gain-of-function wing phenotypes; test: Thapsigargin feeding of larvae: adult wing phenotype, Myc-SmoC320A; assay type: in vivo, Drosophila; conditions: larvae grown at 22° C. on food containing thapsigargin (1 uM) vs vehicle
Experimental: (§1) To confirm that thapsigargin treatment of transgenic Drosophila would not nonspecifically alter UAS/GAL4 transgene expression, the effect of feeding thapsigargin or vehicle control to larvae expressing a GFP transgene under control of the MS1096-Gal4 wing pouch driver was first tested (FIG. 8A). […] Next either wild type or C320A Myc-Smo proteins were expressed at 22° C. under control of MS1096-Gal4, and grew larvae on food containing either vehicle or thapsigargin (FIGS. 8C-D). Consistent with the in vitro results, wings from wild type Myc-Smo expressing flies were unaffected by thapsigargin treatment (FIGS. 8C-C′ compared to B, control).
(§2) Fly stocks were maintained at 18° C. on Jazz mix agarose (Fisher). Crosses were performed at 22° C. or 29° C. as indicated. UAS-myc-smo, UAS-myc-smoC320A and UAS-mycsmoC339A (Carroll et al., 2012 [31]) were expressed under control of MS1096-Gal4. UAS-Xbp1-GFP (Ryon et al., 2007 [44]) was expressed under control of sgs3-Gal4. […] For wing analyses, crosses were performed at least twice, and multiple progeny analyzed. […]
(§3) For drug treatment, 1 to 24 hour MS1096>myc-smoC320A embryos were collected and transferred to vials containing 2 mL Jazz agarose containing vehicle (ethanol) or thapsigargin (Sigma) at a final concentration of 1 uM. Drug feeding was performed across two separate crosses and multiple progeny analyzed. […]

[2] = system: mSmoM2-induced gli1 expression; test: qPCR analysis of endogenous gli1 induction in NIH3T3 cells expressing mSmoM2; assay type: cell-based, mouse
Experimental: (§4) Next, it was decided to determine whether the effects observed following thermal ER stress induction could be recapitulated by an ER stress modulator that is specific to the UPR. To this end, Smo-expressing cells were treated with the potent ER stress inducing compound thapsigargin. Wild type, C318A or M2 mSmo proteins was expressed in NIH3T3 cells, and treated with vehicle or thapsigargin for 4 hours prior to lysis (FIG. 6A). […] The exact mechanism by which gli1 expression is increased in the wild type mSmo background in response to thapsigargin was not known.
To assess gli1 and smo expression, NIH3T3 cells were plated as above and transfected using Fugene 6 (Promega). […] RNA was extracted using RNeasy kit (Qiagen) ˜16 hours after media exchange. cDNA was synthesized from 5 ug of RNA using SuperScript III first strand synthesis system (Invitrogen). qPCR reactions were performed on cDNA diluted 1:10 using SYBR Green PCR master mix (Applied Biosystems). GAPDH was used as a reference gene and results were analyzed using a standard 2^−ααCt method (Livak & Schmittgen, 2001 [63]). The following gene specific primers were used: […]
(§5) qPCR analysis was performed three times in triplicate, and all data pooled. Error bars indicate standard error of the mean.

[3] = system: Myc-SmoC320A protein; test: Immunofluorescence of wing imaginal discs from drug-fed larvae: Myc-SmoC320A protein; assay type: in vivo, Drosophila; conditions: discs from thapsigargin-fed larvae at 22° C. vs vehicle
Experimental: as §1
(§6) For drug treatment, 1 to 24 hour MS1096>myc-smoC320A embryos were collected and transferred to vials containing 2 mL Jazz agarose containing vehicle (ethanol) or thapsigargin (Sigma) at a final concentration of 1 uM. Drug feeding was performed across two separate crosses and multiple progeny analyzed. Representative wings from the resulting adult flies were mounted and imaged as above.
(§7) pAc-myc-smo constructs were expressed in Schneider 2 (S2) cells as described (Carroll et al., 2012 [31]). […] For all indirect immunofluorescence, the indicated primary antibodies were detected using Alexa Fluor (Invitrogen) secondary antibodies conjugated to 488 or 555 fluorophores. […]

[4] = system: gli1 expression in cells expressing wild type mSmo; test: qPCR analysis of gli1 expression in NIH3T3 cells expressing wild type mSmo; assay type: cell-based, mouse; conditions: wild type mSmo-expressing NIH3T3 cells with thapsigargin; normalized to GAPDH
Experimental: as §4
(§8) To assess gli1 and smo expression, NIH3T3 cells were plated as above and transfected using Fugene 6 (Promega). Approximately 30 hours post transfection, culture media was replaced with complete media containing 250 nM Thapsigargin or vehicle (ethanol) control. RNA was extracted using RNeasy kit (Qiagen) ˜16 hours after media exchange. cDNA was synthesized from 5 ug of RNA using SuperScript III first strand synthesis system (Invitrogen). qPCR reactions were performed on cDNA diluted 1:10 using SYBR Green PCR master mix (Applied Biosystems). GAPDH was used as a reference gene and results were analyzed using a standard 2^−ααCt method (Livak & Schmittgen, 2001 [63]). The following gene specific primers were used: […]
qPCR analysis was performed three times in triplicate, and all data pooled. […]

[5] = system: M2 mSmo (mSmoM2); test: Thapsigargin sensitivity analysis: mSmo protein stability in NIH3T3 cells, western blot of whole-cell lysates; assay type: cell-based, mouse; conditions: 1 uM thapsigargin, 4 hours prior to lysis, vs vehicle
Experimental: as §4
(§9) For protein stability analysis in mammalian cells, ˜1×10^6NIH3T3 cells were transfected with 2 ug of wild type or mutant pcDNA3.1-amino expression vector (Carroll et al., 2012 [31]). For temperature sensitivity analysis, transfected cells were maintained at 37° C. for ˜44 hours, and then shifted to 40° C. for 4 hours prior to lysis. Whole-cell lysates were prepared in modified RIPA buffer (50 mM Tris-HCl, pH 7.4, 150 mM NaCl, 0.25% deoxycholic acid, 1% NP-40, 1 mM EDTA, 0.1% SDS, 0.5 mM DTT, and 1× PIC (Roche)) by rocking for 30 minutes at 4° C. as described (Nachtergaele et al., 2012 [62]). Cell extracts were cleared by centrifuging at 16,000×g at 4° C. for 45 minutes. Supernatants were collected and analyzed by SDS-Page and western blot using anti-GADD153/CHOP (B-3, SCBT) anti-Smo (E5, SCBT) and anti-tubulin (Cell Signaling) antibodies. For thapsigargin sensitivity analysis, NIH3T3 cells expressing wild type or mutant mSmo protein at 37° C. were treated with vehicle (ethanol) or 1 uM thapsigargin (Sigma) in DMEM containing 0.5% fetal calf serum for 4 hrs prior to lysis. Whole-cell lysates were prepared in modified RIPA buffer and analyzed as above.

[6] = system: wild type mSmo; test: as above; assay type: cell-based, mouse; conditions: 1 uM thapsigargin, 4 hours prior to lysis, vs vehicle
Experimental: as §4, §9

[7] = system: C318A mSmo; test: as above; assay type: cell-based, mouse; conditions: 1 uM thapsigargin, 4 hours prior to lysis, vs vehicle
Experimental: as §4, §9

[8] = system: smo expression; test: qPCR analysis of smo expression in NIH3T3 cells expressing wild type or M2 mSmo; assay type: cell-based, mouse; conditions: thapsigargin treatment
Experimental: as §8, §5

[9] = system: C320A-mediated ectopic stabilization of Ci; test: Immunofluorescence of wing imaginal discs from drug-fed larvae: full-length Ci; assay type: in vivo, Drosophila; conditions: discs from thapsigargin-fed larvae at 22° C. vs vehicle
Experimental: as §1, §6, §7

[10] = system: wings from wild type Myc-Smo expressing flies; test: Thapsigargin feeding of larvae: adult wing phenotype, wild type Myc-Smo; assay type: in vivo, Drosophila; conditions: larvae grown at 22° C. on food containing thapsigargin (1 uM) vs vehicle
Experimental: as §1, §2, §3

[11] = system: GFP transgene under control of MS1096-Gal4; test: Thapsigargin feeding of MS1096>GFP larvae: transgene expression in wing imaginal discs; assay type: in vivo, Drosophila; conditions: larvae fed thapsigargin (1 uM in food) at 22° C.
Experimental: as §1, §6

C/C=C(/C)C(=O)O[C@H]1C(C)=C2[C@H]([C@@H]1OC(=O)CCCCCCC)[C@@](C)(OC(C)=O)C[C@H](OC(=O)CCC)[C@@]1(O)[C@H]2OC(=O)[C@@]1(C)O [thapsigargin]
Myc-SmoC320A-induced Hh gain-of-function wing phenotype [1]: significantly attenuated; also recorded: significantly reduced | reduction of mSmoM2-mediated gli1 induction ([2]; NIH3T3 cells, 250 nM thapsigargin ~16 hours (method), vehicle gives approx. 40-fold): approximately 50% | mSmoM2-induced gli1 expression (qualitative) ([2]; NIH3T3 cells, over-night treatment with 200 nM thapsigargin (FIG. 6B legend)): specific attenuation | gli1 expression, fold over the mSmoWT baseline ([2]; mSmoM2-expressing NIH3T3 cells with thapsigargin, normalized to GAPDH): ~18 fold | Myc-SmoC320A protein level in wing imaginal discs [3]: significantly reduced; also recorded: significant reduction | gli1 expression, fold over baseline [4]: ~4 fold | M2 mSmo protein stability [5]: destabilized | wild type mSmo protein stability [6]: not significantly affected | C318A mSmo protein stability [7]: destabilized | smo expression (wild type and M2 transcripts) [8]: modest increase; also recorded: increased modestly | C320A-mediated ectopic stabilization of Ci in wing imaginal discs [9]: reduced Ci stabilization; also recorded: dramatically reduced | wing phenotype of wild type Myc-Smo expressing flies [10]: unaffected | wing phenotype of wild type Myc-Smo expressing flies ([10]; listed as Thapsigargin): did not affect | GFP transgene expression [11]: unaffected

From patent publication US20150320723A1, “Use of Small Molecule Unfolder Protein Response Modulators to Treat Tumors With Active Sonic Hedgehog (SSH) Signaling Due To Smoothened (SMO) Mutation” (ST. JUDE CHILDREN'S RESEARCH HOSPITAL, priority 2013, published 2015)
